{
  "source": "patent US7687546B2",
  "about": "“Quaternary ammonium compound, process for producing the same, therapeutic agent for cerebrovascular disorder, and therapeutic agent for heart disease” (Activus Pharma Co., Ltd., priority 2004, dated 2010)",
  "key": {"[1]": {"system": "model of myocardial ischemia reperfusion injury", "test": "Model of myocardial ischemia-reperfusion injury in dogs", "format": "in vivo", "details": "3 mg/kg into the femoral vein 10 minutes before 20 minutes coronary occlusion, then reperfusion", "method": "In order to confirm the efficacy of compounds of the present invention on myocardial infarction and arrhythmia caused by myocardial infarction, a pharmacological study was conducted using a model of myocardial ischemia reperfusion injury in dogs for the compounds used in Example 1.\nDogs having body weights of approximately 10 kg were anesthetized with pentobarbital (trade name) (30 mg/ml/kg) followed by shaving the surgical site after starting artificial respiration. The femoral vein and femoral artery were separated followed by cannulation. The femoral vein was used as the administration route for the test substances, while the femoral artery was used to measure blood pressure.\nNext, after opening the left chest, making an incision in the pericardium and exposing the left ventricle, the left coronary artery was separated. A silk suture was passed through the coronary artery to occlude, followed by the attachment of an electromagnetic flow meter probe for measuring blood flow.\nIn addition, a pair of ultrasound crystal probes was fixed in position to measure changes in ventricular wall length as a indicator of myocardial contractile force, and indwelling needle was installed for measuring left intraventricular pressure. Compounds of the present invention were administered into the femoral vein at 3 mg/kg (15% physiological saline solution) followed 10 minutes later by occluding the coronary artery for 20 minutes, and subsequently reperfusing the coronary artery. Myocardial contraction following ischemia-reperfusion was compared for each group based on a value of 100 for myocardial contraction prior to ischemic reperfusion. In addition, comparisons were also made with a solvent control group administered only physiological saline."}, "[2]": {"system": "model of myocardial ischemia-reperfusion injury", "test": "Model of myocardial ischemia-reperfusion injury in rats", "format": "in vivo", "details": "3 mg/kg i.v. 5 minutes before 5 minutes coronary ligation, 8 rats per group"}, "[3]": {"system": "middle cerebral artery occlusion and reperfusion model", "test": "Cerebral infarction model: middle cerebral artery occlusion and reperfusion (infarct area, neurological symptoms, motor function)", "format": "in vivo, rats (Crj: Wistar strain)", "set-up": "Improvement of neurological symptoms* (total score): scale not given here", "details": "rats, average of 10 animals", "method": "In this example, a cerebral infarction model was prepared using rats in which reperfusion injury was induced by ischemia and then reperfusion of the middle cerebral artery using the obturator method. The efficacy of compounds of the present invention following single-dose intravenous administration at dose of 3 mg/kg was evaluated in terms of infarct area, neurological symptoms and motor function.\nIn addition, Edaravone (trade name, Mitsubishi Pharma Corporation) was used as a reference compound. The compounds of the present invention were stored in a refrigerator under protection from light, while Edaravone (trade name) was stored at room temperature under protection from light.\nCompounds of present invention: 2 mL of physiological saline was added directly to tube containing 3 mg aliquots of a compound of the present invention to dissolve and prepare solutions having a concentration of 3 mg/2 mL. These samples were prepared at the time of use.\nEdaravone: Since Edaravone is an injectable solution having a concentration of 30 mg/20 mL, the required amounts were divided up and used.\nRats: Crj: Wistar strain, males, age 7 weeks (Charles River Laboratories Japan, Inc.)\nThe test compounds were administered in a single dose into the tail vein using a 1 mL syringe and 27 G injection needle immediately before the reperfusion.\nThe rats were anesthetized by intraperitoneal administration of sodium pentobarbital at dose of 40 mg/kg (Nembutal (trade name), Dainippon Pharmaceutical Co., Ltd.), and a middle cerebral artery occlusion and reperfusion model was prepared in accordance with the method of Koizumi et al. (Non-Patent Document 2). Namely, the animals were warmed to 37° C. and held in the dorsal position while breathing spontaneously. A midline cervical incision was made, and then the right external carotid artery and right internal carotid artery were separated without damaging the vagus nerve. The right common carotid artery and right external carotid artery were ligated, and a suture was attached to the origin of the internal carotid artery in preparation for ligation and maintenance of occlusion following insertion of an obturator into the internal carotid artery. Moreover, a small incision was made in the right common carotid artery, an obturator provided with an approximately 17 mm silicon-coated suture was inserted into the internal carotid artery, and the internal carotid artery was ligated. Two hours after ligation, the obturator was removed under unanesthesia to reperfuse. Furthermore, flexion of the contralateral forelimb was confirmed 30 minutes after occlusion of the middle cerebral artery.\nThe following neurological symptoms were evaluated 24 hours after occlusion of the middle cerebral artery according to the evaluation method of Petullo et al. (Non-Patent Document 3). Neurological symptoms consisted of flexion of the forelimbs, torso twisting, resistance when pushing on the back of the right or left shoulder (Lateral push), circling, return of the hindlimb to the floor when lifted from the floor (Hindlimb placement), behavior when the head is faced downward on an angle (Inverted angle board) and a locomotor activity test.\nFlexion of the forelimbs: flexion of the forelimbs was observed when the animals were lifted up by the tail.\nTorso twisting: Torso twisting was observed when the animals were lifted up by the tail.\nLateral push: Resistance was observed when pushing on the back of the right or left shoulder.\nHindlimb placement: The animals were observed as to whether or not the hindlimb immediately returns to the floor after being lifted from the floor when placed on a horizontal floor.\nlocomotor activity: locomotor activity was observed when the animals were placed in a polycarbonate cage.\nThe aforementioned tests were scored based on the criteria described in the following documents, followed by calculation of total scores (see Table 4 “Neurological Symptom Evaluation Criteria and Scores”). […]"}, "[4]": {"system": "guinea pigs", "test": "Study of arrhythmia-inducing action in guinea pigs (without ouabain)", "details": "up to 1 hour after administration, no ouabain"}, "[5]": {"system": "ouabain-induced arrhythmia model", "test": "Ouabain-induced arrhythmia model in guinea pigs", "format": "in vivo, guinea pigs (Hartley strain)", "details": "dose 3 mg/kg i.v. immediately before ouabain infusion 3 μg/0.1 ml/min", "excerpt": "After guinea pigs (Hartley strain, age 6 weeks) were anesthetized with urethane, induction electrodes were attached to the hind limbs and fore limbs, and standard 2-lead electrocardiograms were monitored with an animal electrocardiogram analysis system (ECG-01, Japan Energy). After confirming that the waveforms of the electrocardiogram and heart rate were within the normal range, an incision was made in the epidermis of the neck followed by inserting a breathing tube into the trachea and cannulating a polyethylene tube into the left external jugular vein and left common carotid artery.\nImmediately after administering a compound of the present invention dissolved in a physiological saline solution into the right external jugular vein, ouabain was continuously infused at 3 μg/0.1 ml/min through the cannulated polyethylene tube into the left external jugular vein using a syringe pump (Atom Syringe Pump 1235 (trade name), Atom Medical Corporation).\nIn addition, the polyethylene tube cannulated in the left common carotid artery was connected to a pressure transducer (P23XL, Gould Electronics), and fed to a pressure processor signal conditioner (TA-11, Gould Electronics) to record blood pressure and heart rate on a thermal plate recorder.\nThe results were assessed by comparing the dose (μg/kg) of ouabain administered until the appearance of arrhythmia and occurrence of cardiac arrest (arrhythmia is not induced even if a large dose of ouabain is administered if antiarrhythmic effects are high). Furthermore, a solvent dose group (administered only physiological saline in an amount equal to that of the test drug groups), and a positive control group administered a typical antiarrhythmic disopyramide phosphate (physiological saline solution), were also provided."}, "[6]": {"details": "monitored 5 minutes after reperfusion"}},
  "data": [
    {"smiles": "C[N+](C)(C)CCOc1cc(C(=O)O)ccc1O.[Cl-]", "note": "[Compound 27, [2-(5-carboxy-2-hydroxy-phenoxy)-ethyl]-trimethylammonium Chloride]", "values": [
      {"measurement": "Myocardial Contraction (%) (Based on a value of 100% for prior to ischemia-reperfusion)", "setting": "[1]", "result": 85, "unit": "%"},
      {"measurement": "Incidence of Ventricular Fibrillation (%)", "setting": "[2]; [6]", "result": 0, "unit": "%"},
      {"measurement": "Incidence of Ventricular Tachycardia (%)", "setting": "[2]; [6]", "result": 50.0, "unit": "%"},
      {"measurement": "Mortality Rate (%)", "setting": "[2]; then reperfusion", "result": 0, "unit": "%"},
      {"measurement": "Improvement of neurological symptoms* (total score)", "setting": "[3]; single i.v. dose 3 mg/kg, 24 hours after occlusion, total score per Table 4, smaller = greater effect", "result": 6.75},
      {"measurement": "Improvement of motor function (time stayed on rotor rod: seconds)", "setting": "[3]; single i.v. dose 3 mg/kg, rotor rod 14 rotations per minute, maximum 1 minute", "result": 47.5, "unit": "s"},
      {"measurement": "Cerebral infarction reduction rate (%)", "setting": "[3]; single intravenous dose 3 mg/kg immediately before reperfusion, vs physiological saline group, bigger = greater effect", "result": 53.7, "unit": "%"},
      {"measurement": "Occurrence of Arrhythmia", "setting": "[4]; dose 3 mg/kg", "result": "No"},
      {"measurement": "Occurrence of cardiac arrest", "setting": "[4]; dose 3 mg/kg", "result": "No"},
      {"measurement": "Occurrence of Arrhythmia", "setting": "[4]; dose 10 mg/kg", "result": "No"},
      {"measurement": "Occurrence of cardiac arrest", "setting": "[4]; dose 10 mg/kg", "result": "No"},
      {"measurement": "Ouabain (μg/kg) administered until Cardiac arrest", "setting": "[5]", "result": 258, "unit": "µg/kg"},
      {"measurement": "Ouabain (μg/kg) administered until appearance of Arrhythmia", "setting": "[5]", "result": 180, "unit": "µg/kg"}
    ]}
  ]
}
